Drawing on patent US10562888B2, “Crystalline FGFR4 inhibitor compound and uses thereof” (Eisai R&D Management Co., Ltd., priority 2015, dated 2020), this text covers solubility for one molecule.

In brackets after ≈: the same amount, converted by molar mass.

This data set can be described thus: Solubility in 0.1 N HCl. It is filed as physicochemical. The settings on record: simulated gastric fluid.

A word on the solubility: it is the dissolved amount per volume that the medium holds. A low value points to a poorly soluble substance.

As to `C=CC(=O)Nc1cc(N2CCN(CC)CC2)ccc1Nc1cc(N(C)C(=O)Nc2c(Cl)c(OC)cc(OC)c2Cl)ncn1` [Compound 108, N-(2-((6-(3-(2,6-dichloro-3,5-dimethoxyphenyl)-1-methylureido)pyrimidin-4-yl)amino)-5-(4-ethylpiperazin-1-yl)phenyl)acrylamide], the concentration in solution (solubility) came to 5200 µg/mL (≈ 8.26 mM).
